Assay results reported in PubChem BioAssay (NCI).
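GI50 is the concentration that inhibits growth by half. TGI marks complete inhibition of growth.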

What was measured:
Test in all cases: NCI anticancer screen, dose series, 384-well format
[1] = system: NCI-H322M lung
[2] = system: BT-549 breast
[3] = system: NCI-H522 lung
[4] = system: HOP-62 NSCLC
[5] = system: TK-10 renal
[6] = system: EKVX NSCLC
[7] = system: 786-0 renal
[8] = system: NCI-H23 lung
[9] = system: KM12 colon
[10] = system: SNB-75 CNS
[11] = system: SW-620 colon
[12] = system: MCF7 breast
[13] = system: HCC-2998 colon
[14] = system: NCI/ADR-RES ovarian
[15] = system: ACHN renal
[16] = system: OVCAR-3 ovarian
[17] = system: SN12C renal
[18] = system: U251 glioblastoma
[19] = system: LOX IMVI melanoma
[20] = system: PC-3 prostate
[21] = system: A549 NSCLC
[22] = system: MALME-3M melanoma
[23] = system: UACC-257 melanoma
[24] = system: K-562 leukemia
[25] = system: SK-MEL-5 melanoma
[26] = system: SK-MEL-2 melanoma
[27] = system: M14 melanoma
[28] = system: CCRF-CEM leukemia
[29] = system: OVCAR-5 ovarian
[30] = system: MOLT-4 leukemia
[31] = system: OVCAR-8 ovarian
[32] = system: HL-60(TB) leukemia
[33] = system: A498 renal
[34] = system: MDA-MB-435 melanoma
[35] = system: NCI-H460 NSCLC
[36] = system: RXF 393 renal
[37] = system: RPMI-8226 leukemia
[38] = system: SK-OV-3 ovarian
[39] = system: T-47D breast
[40] = system: SNB-19 CNS
[41] = system: OVCAR-4 ovarian
[42] = system: SF-539 CNS
[43] = system: SF-295 CNS
[44] = system: HCT-15 colon
[45] = system: IGROV1 ovarian
[46] = system: MDA-MB-468 breast
[47] = system: SK-MEL-28 melanoma
[48] = system: NCI-H226 lung
[49] = system: MDA-MB-231 breast
[50] = system: HT29 colon
[51] = system: UACC-62 melanoma
[52] = system: CAKI-1 renal
[53] = system: SR leukemia
[54] = system: SF-268 CNS
[55] = system: HS 578T breast
[56] = system: DU-145 prostate
[57] = system: COLO 205 colon
[58] = system: HCT-116 colon
[59] = system: HOP-92 NSCLC

Oc1ccc(-c2nc(-c3ccc(F)cc3)c(-c3ccncc3)[nH]2)cc1
GI50 [1]: 21.3 µM
TGI [1]: 52.5 µM
GI50 [2]: 19.2 µM
TGI [2]: > 57.2 µM
GI50 [3]: 7.46 µM
TGI [3]: 22.2 µM
GI50 [4]: 19 µM
TGI [4]: 42.9 µM
GI50 [5]: 18.8 µM
TGI [5]: 57.3 µM
GI50 [6]: 14.7 µM
TGI [6]: 33.2 µM
GI50 [7]: 12.9 µM
TGI [7]: 26.6 µM
GI50 [8]: 29.2 µM
TGI [8]: 85.4 µM
GI50 [9]: 20.2 µM
TGI [9]: 37.2 µM
GI50 [10]: 32.9 µM
TGI [10]: > 85.4 µM
GI50 [11]: 23.5 µM
TGI [11]: 38.4 µM
GI50 [12]: 18.8 µM
TGI [12]: > 100 µM
GI50 [13]: 23.9 µM
TGI [13]: 40.8 µM
GI50 [14]: 20.2 µM
TGI [14]: 46.6 µM
GI50 [15]: 12.2 µM
TGI [15]: 31.5 µM
GI50 [16]: 14.9 µM
TGI [16]: 29 µM
GI50 [17]: 44.3 µM
TGI [17]: > 100 µM
GI50 [18]: 18.6 µM
TGI [18]: 48.3 µM
GI50 [19]: 17.6 µM
TGI [19]: 31.8 µM
GI50 [20]: 18.7 µM
TGI [20]: > 57 µM
GI50 [21]: 19.2 µM
TGI [21]: > 52.1 µM
GI50 [22]: 3.34 µM
TGI [22]: 9.1 µM
GI50 [23]: 21.9 µM
TGI [23]: > 54 µM
GI50 [24]: 10.5 µM
TGI [24]: 24.2 µM
GI50 [25]: 10.6 µM
TGI [25]: 22.5 µM
GI50 [26]: 16.3 µM
TGI [26]: 30 µM
GI50 [27]: 5.7 µM
TGI [27]: 21 µM
GI50 [28]: 10.1 µM
TGI [28]: 21.8 µM
GI50 [29]: 23.6 µM
TGI [29]: 47 µM
GI50 [30]: 11.9 µM
TGI [30]: 24.3 µM
GI50 [31]: 22.7 µM
TGI [31]: > 100 µM
GI50 [32]: 14.6 µM
TGI [32]: 27.7 µM
GI50 [33]: 16.4 µM
TGI [33]: 46.2 µM
GI50 [34]: 10.4 µM
TGI [34]: 44 µM
GI50 [35]: 15.3 µM
TGI [35]: 28.9 µM
GI50 [36]: 15 µM
TGI [36]: 31.5 µM
GI50 [37]: 5.38 µM
TGI [37]: 13.1 µM
GI50 [38]: 13 µM
TGI [38]: 32.7 µM
GI50 [39]: 12.5 µM
TGI [39]: 27.1 µM
GI50 [40]: 41.7 µM
TGI [40]: > 100 µM
GI50 [41]: 47.5 µM
TGI [41]: > 100 µM
GI50 [42]: 17.6 µM
TGI [42]: 35.8 µM
GI50 [43]: 17.5 µM
TGI [43]: 33.1 µM
GI50 [44]: 15.4 µM
TGI [44]: 32.9 µM
GI50 [45]: 1.62 µM
TGI [45]: 20.9 µM
GI50 [46]: 4.59 µM
TGI [46]: 19.3 µM
GI50 [47]: 7.27 µM
TGI [47]: 22.4 µM
GI50 [48]: 18.7 µM
TGI [48]: 39.4 µM
GI50 [49]: 20.7 µM
TGI [49]: > 60 µM
GI50 [50]: 5.85 µM
TGI [50]: 20.9 µM
GI50 [51]: 3.62 µM
TGI [51]: 16.8 µM
GI50 [52]: 7.98 µM
TGI [52]: > 48.4 µM
GI50 [53]: 10.3 µM
TGI [53]: 22.1 µM
GI50 [54]: 18.3 µM
TGI [54]: 46.2 µM
GI50 [55]: 15.7 µM
TGI [55]: 31.3 µM
GI50 [56]: 14.8 µM
TGI [56]: 31.2 µM
GI50 [57]: 8.47 µM
TGI [57]: 22.1 µM
GI50 [58]: 20 µM
TGI [58]: > 53.3 µM
GI50 [59]: 15.9 µM
TGI [59]: 60.4 µM
